The source of these data is ChEMBL document CHEMBL3774304, “Novel morpholin-3-one fused quinazoline derivatives as EGFR tyrosine kinase inhibitors” (Bioorg Med Chem Lett, 2016).

The term IC50 denotes the concentration that gives 50% inhibition. Read a high IC50 as weaker potency.

Test [1] addresses T1, Epidermal growth factor receptor (Homo sapiens, UniProt P00533).
Target sequence in this assay (P00533 whole entry): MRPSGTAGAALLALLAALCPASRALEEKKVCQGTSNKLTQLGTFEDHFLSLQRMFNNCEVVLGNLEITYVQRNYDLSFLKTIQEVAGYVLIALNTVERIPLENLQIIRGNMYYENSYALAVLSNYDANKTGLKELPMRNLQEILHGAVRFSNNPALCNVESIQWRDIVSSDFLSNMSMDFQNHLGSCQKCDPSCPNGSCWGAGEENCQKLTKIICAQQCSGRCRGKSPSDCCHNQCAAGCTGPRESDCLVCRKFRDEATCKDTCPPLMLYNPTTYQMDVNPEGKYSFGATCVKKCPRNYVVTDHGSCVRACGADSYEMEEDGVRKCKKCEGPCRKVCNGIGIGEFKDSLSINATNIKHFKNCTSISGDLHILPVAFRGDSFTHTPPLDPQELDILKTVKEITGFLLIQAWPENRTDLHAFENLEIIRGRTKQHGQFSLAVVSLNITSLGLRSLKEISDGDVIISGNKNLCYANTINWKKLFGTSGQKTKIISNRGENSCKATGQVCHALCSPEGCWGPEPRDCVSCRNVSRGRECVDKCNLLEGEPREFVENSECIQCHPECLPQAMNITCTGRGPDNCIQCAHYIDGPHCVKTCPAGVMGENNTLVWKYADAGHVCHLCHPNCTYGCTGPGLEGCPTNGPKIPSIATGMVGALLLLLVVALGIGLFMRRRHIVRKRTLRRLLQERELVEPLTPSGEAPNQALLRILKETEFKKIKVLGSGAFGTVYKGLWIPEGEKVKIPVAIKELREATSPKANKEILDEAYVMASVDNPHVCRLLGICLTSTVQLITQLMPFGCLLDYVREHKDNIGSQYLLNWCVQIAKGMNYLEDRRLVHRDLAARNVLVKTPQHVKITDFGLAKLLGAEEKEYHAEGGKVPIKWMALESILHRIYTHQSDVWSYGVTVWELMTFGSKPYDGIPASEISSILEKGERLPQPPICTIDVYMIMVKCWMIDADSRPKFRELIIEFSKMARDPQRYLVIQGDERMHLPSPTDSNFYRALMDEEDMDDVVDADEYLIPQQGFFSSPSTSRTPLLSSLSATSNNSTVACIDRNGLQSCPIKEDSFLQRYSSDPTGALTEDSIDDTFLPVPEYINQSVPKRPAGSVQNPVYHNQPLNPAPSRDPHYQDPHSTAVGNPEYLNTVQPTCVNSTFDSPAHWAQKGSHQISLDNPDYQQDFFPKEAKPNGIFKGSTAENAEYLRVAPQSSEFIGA
Description: Inhibition of wildtype EGFR (unknown origin) preincubated for 30 mins followed by addition of 2x ATP-substrate mixture measured after 1 hr by Kinase Glo luminescent kinase assay
For the next test, the system named is A549. Briefly: cells. In kind it is functional, cell-based. The settings on record: Homo sapiens, A549, 48 h.
A further test relates to NCI-H358. The test can be described thus: cells. The format is functional, cell-based. The settings on record: Homo sapiens, NCI-H358, 48 h.
Test [2] addresses T1, Epidermal growth factor receptor. The format is protein assay.
Target sequence in this assay (P00533 25-1210 limits assumed, change not shown): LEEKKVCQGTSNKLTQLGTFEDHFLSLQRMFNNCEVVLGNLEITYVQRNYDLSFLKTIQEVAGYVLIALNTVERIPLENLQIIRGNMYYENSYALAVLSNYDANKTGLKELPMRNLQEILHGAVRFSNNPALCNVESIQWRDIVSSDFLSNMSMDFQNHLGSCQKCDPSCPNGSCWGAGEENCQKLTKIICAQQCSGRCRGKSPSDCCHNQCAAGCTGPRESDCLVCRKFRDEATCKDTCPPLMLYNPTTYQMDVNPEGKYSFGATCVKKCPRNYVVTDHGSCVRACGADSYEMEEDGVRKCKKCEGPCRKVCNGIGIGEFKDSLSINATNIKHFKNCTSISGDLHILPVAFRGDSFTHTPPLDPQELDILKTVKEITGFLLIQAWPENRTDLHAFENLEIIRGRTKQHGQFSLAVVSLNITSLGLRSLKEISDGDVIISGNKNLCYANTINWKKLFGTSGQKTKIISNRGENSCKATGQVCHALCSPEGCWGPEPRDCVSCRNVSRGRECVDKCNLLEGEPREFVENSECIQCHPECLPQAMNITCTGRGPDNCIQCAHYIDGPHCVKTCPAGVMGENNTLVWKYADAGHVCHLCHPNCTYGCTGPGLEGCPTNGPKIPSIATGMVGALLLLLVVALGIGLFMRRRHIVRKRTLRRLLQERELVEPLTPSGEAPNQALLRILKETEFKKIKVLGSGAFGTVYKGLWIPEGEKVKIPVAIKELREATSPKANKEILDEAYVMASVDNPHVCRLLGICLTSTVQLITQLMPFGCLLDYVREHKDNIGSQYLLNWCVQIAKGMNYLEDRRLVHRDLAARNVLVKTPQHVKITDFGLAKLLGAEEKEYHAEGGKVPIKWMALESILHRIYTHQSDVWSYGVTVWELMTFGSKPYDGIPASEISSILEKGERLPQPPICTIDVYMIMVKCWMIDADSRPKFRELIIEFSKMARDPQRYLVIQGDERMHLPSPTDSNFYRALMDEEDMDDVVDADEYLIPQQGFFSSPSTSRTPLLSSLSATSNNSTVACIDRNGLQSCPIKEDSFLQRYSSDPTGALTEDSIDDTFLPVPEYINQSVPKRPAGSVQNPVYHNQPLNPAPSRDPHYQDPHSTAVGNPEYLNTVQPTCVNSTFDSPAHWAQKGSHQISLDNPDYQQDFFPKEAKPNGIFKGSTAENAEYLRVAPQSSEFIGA
Description: Inhibition of EGFR-T790M/L858 mutant (unknown origin) preincubated for 30 mins followed by addition of 2x ATP-substrate mixture measured after 1 hr by Kinase Glo luminescent kinase assay

Description for A549: Antiproliferative activity against human A549 cells assessed as viable cells after 48 hrs by CCK8 assay
Description for NCI-H358: Antiproliferative activity against human NCI-H358 cells assessed as viable cells after 48 hrs by CCK8 assay

Consider `C#Cc1cccc(Nc2ncnc3cc4c(cc23)N(CCCN2CCCCC2)C(=O)CO4)c1`, for which the midpoint of inhibition in test [1], the IC50, lay at 211 nM.
In test [1], `O=C1COc2cc3ncnc(Nc4ccc(F)cc4)c3cc2N1CCCN1CCOCC1` came in with an IC50 of 434 nM.
On the same count and under the same terms, with `Cc1ccc(Nc2ncnc3cc4c(cc23)N(CCCN2CCOCC2)C(=O)CO4)cc1Cl` the figure was 163 nM; with `O=C1COc2cc3ncnc(Nc4ccc(Br)cc4)c3cc2N1CCCN1CCOCC1`, 824 nM.
The same measure, in the same setting: to `Cc1ccc(Nc2ncnc3cc4c(cc23)N(CCCN2CCOCC2)C(=O)CO4)cc1` belongs 594 nM; to `O=C1COc2cc3ncnc(Nc4cccc(Br)c4)c3cc2N1CCCN1CCOCC1`, 89.6 nM.
Same read-out and setting: to `COc1cccc(Nc2ncnc3cc4c(cc23)N(CCCN2CCOCC2)C(=O)CO4)c1` belongs more than 1000 nM.
With `C#Cc1cccc(Nc2ncnc3cc4c(cc23)N(CCCN2CCOCC2)C(=O)CO4)c1`, the IC50 in the test on A549 turned out to be 5580 nM; with NCI-H358 it was 13500 nM; in test [1], 139 nM; in test [2], 880 nM.
In turn, `O=C1COc2cc3ncnc(Nc4cccc(Cl)c4)c3cc2N1CCCN1CCOCC1` showed an IC50 in test [1] of 63.1 nM.
Same read-out and setting: to `O=C1COc2cc3ncnc(Nc4cccc(C(F)(F)F)c4)c3cc2N1CCCN1CCOCC1` belongs 829 nM; to `O=C1COc2cc3ncnc(Nc4ccc(F)c(Cl)c4)c3cc2N1CCCN1CCCCC1`, 138 nM; to `O=C1COc2cc3ncnc(Nc4cccc(Br)c4)c3cc2N1CCCN1CCCCC1`, 99 nM.
Still for that read-out and setting: to `O=C1COc2cc3ncnc(Nc4ccccc4)c3cc2N1CCCN1CCOCC1` belongs 519 nM.
Same read-out and setting: to `O=C1COc2cc3ncnc(Nc4cccc(F)c4)c3cc2N1CCCN1CCOCC1` belongs 245 nM.
In test [1], `COc1ccc(Nc2ncnc3cc4c(cc23)N(CCCN2CCOCC2)C(=O)CO4)cc1OC` yielded an IC50 of more than 1000 nM.
Same read-out and setting: to `Cc1cccc(Nc2ncnc3cc4c(cc23)N(CCCN2CCOCC2)C(=O)CO4)c1` belongs 187 nM.
Take `O=C1COc2cc3ncnc(Nc4cccc(Cl)c4)c3cc2N1CCCN1CCCCC1`: half-maximal inhibition in test [1] (IC50) was put at 116 nM.
Turning to `O=C1COc2cc3ncnc(Nc4ccc(F)c(Cl)c4)c3cc2N1CCCN1CCOCC1`, the IC50 in the test with A549 turned out to be 7510 nM; in the test on NCI-H358, 13500 nM; in test [1], 53.1 nM; in test [2], 336 nM.
The molecule `Cc1cccc(Nc2ncnc3cc4c(cc23)N(CCCN2CCCCC2)C(=O)CO4)c1` returned an IC50 in test [1] of 456 nM.
Same read-out and setting: with `O=C1COc2cc3ncnc(Nc4ccc(Cl)cc4)c3cc2N1CCCN1CCOCC1` the figure was 354 nM.
